Laboratory results as given in patent US9790169B2, “IDO inhibitors” (BRISTOL-MYERS SQUIBB COMPANY, priority 2015, dated 2017).

target: human IDO1 (Homo sapiens, UniProt P14902); assay: Assessment of human IDO-1 inhibitory activity in HEK cells (human IDO1/HEK293 cells, kynurenine read-out with Ehrlich reagent, absorbance 490 nm); format: cell-based; set-up: expressed in transfected cells; settings: HEK Human IDO-1 cellular assay
Description: Exemplary compounds were tested for inhibition of IDO activity.
Assessment of Human IDO-1 Inhibitory Activity in HEK Cells
HEK293 cells were transfected with a pCDNA-based mammalian expression vector harboring human IDO1 cDNA (NM 002164.2) by electroporation. They were cultured in medium (DMEM with 10% FBS) containing 1 mg/ml G418 for two weeks. Clones of HEK293 cells that stably expressed human IDO1 protein were selected and expanded for IDO inhibition assay.
The human IDO1/HEK293 cells were seeded at 10,000 cells per 50 μL per well with RPMI/phenol red free media contains 10% FBS in a 384-well black wall clear bottom tissue culture plate (Matrix Technologies LLC) 100 nL of certain concentration of compound was then added to each well using ECHO liquid handling systems. The cells were incubated for 20 hours in 37° C. incubator with 5% CO2.
The compound treatments were stopped by adding trichloroacetic acid (Sigma-Aldrich) to a final concentration at 0.2%. The cell plate was further incubated at 50° C. for 30 minute. The equal volume supernatant (20 μL) and 0.2% (w/v) Ehrlich reagent (4-dimethylaminobenzaldehyde, Sigma-Aldrich) in glacial acetic acid were mixed in a new clear bottom 384-well plate. This plate was then incubated at room temperature for 30 minute. The absorbance at 490 nm was measured on Envision plate reader.
Compound IC50 values were calculated using the counts of 500 nM of a reference standard treatment as one hundred percent inhibition, and counts of no compound but DMSO treatment as zero percent inhibition.

human IDO1, sequence (P14902 whole entry): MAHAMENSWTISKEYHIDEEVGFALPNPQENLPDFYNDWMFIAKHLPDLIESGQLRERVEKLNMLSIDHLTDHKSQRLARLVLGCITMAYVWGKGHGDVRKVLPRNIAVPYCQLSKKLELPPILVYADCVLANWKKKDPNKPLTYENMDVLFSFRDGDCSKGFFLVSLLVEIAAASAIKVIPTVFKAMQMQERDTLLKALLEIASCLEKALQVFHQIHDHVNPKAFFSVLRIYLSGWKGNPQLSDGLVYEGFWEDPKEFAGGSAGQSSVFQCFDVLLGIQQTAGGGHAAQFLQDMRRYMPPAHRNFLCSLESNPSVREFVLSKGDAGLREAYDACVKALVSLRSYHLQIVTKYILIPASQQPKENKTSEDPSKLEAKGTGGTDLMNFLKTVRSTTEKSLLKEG

Compound | IC50
CCC(CC(=O)O)c1ccc(N2CCC[C@H]2C(C)(C)O)c(Nc2ccc(C#N)cc2)c1 (single isomer, unassigned) [Example 825] | < 50 nM
CCN(c1ccc(C(C)(C)CC(=O)O)cc1Nc1ccc(C#N)cc1)C1CCOCC1 [Example 160, 3-(3-((4-cyanophenyl)amino)-4-(ethyl(tetrahydro-2H-pyran-4-yl)amino)phenyl)-3-methylbutanoic acid] | < 5 nM
CC[C@@H](CC(=O)O)c1ccc(N(CC(C)(C)O)C2CCOCC2)c(Nc2ccc3c(c2)OC(F)(F)O3)c1 (single isomer, unassigned) [Example 199] | < 5 nM
CCOc1ncc(Nc2cc([C@H](CC)CC(=O)O)ccc2N(CC(C)(C)O)C2CCCCC2)cn1 (single isomer, unassigned) [Example 240] | < 50 nM
COCC(CC(=O)O)c1cc(F)c(N(CC(C)C)C2CCCCC2)c(NC(=O)Nc2ccc(C)cc2)c1 (single isomer, unassigned) [Example 1155, 3-(4-(cyclohexyl(isobutyl)amino)-3-fluoro-5-(3-(p-tolyl)ureido)phenyl)-4-methoxybutanoic acid] | < 5 nM
CCC(CC(=O)O)c1ccc(N2CCOC[C@H]2C(C)C)c(Nc2cnc(OC)nc2)c1 (single isomer, unassigned) [Example 906] | < 50 nM
CCC(CC(=O)O)c1cc(F)c(N(CC(C)C)CC(C)C)c(NC(=O)Nc2ccc(Cl)cc2F)c1 (single isomer, unassigned) [981-1] | < 5 nM
CCCN(CC1CC1)c1ccc(C(CC)CC(=O)O)cc1Nc1ccc2nc(C)sc2c1 (single isomer, unassigned) [Example 658, 3-(4-((cyclopropylmethyl) (propyl)amino)-3-((2-methylbenzo[d]thiazol-6-yl)amino)phenyl)pentanoic acid] | < 50 nM
CCOc1ccc(NC(=O)Nc2cc(C(COC)CC(=O)O)ccc2N(CC(C)C)C2CCOCC2)c(F)c1 (single isomer, unassigned) [Example 1222, 3-(3-(3-(4-Ethoxy-2-fluorophenyl)ureido)-4-(isobutyl(tetrahydro-2H-pyran-4-yl)amino)phenyl)-4-methoxybutanoic acid] | < 50 nM
CCc1ccc(Nc2cc([C@H](CC)CC(=O)O)ccc2N(CC)C2CCCCC2)cc1 (single isomer, unassigned) [Example 288] | < 50 nM
CCOc1ncc(Nc2cc(C(CC)CC(=O)O)ccc2N2CCOC[C@H]2C(C)C)cn1 (single isomer, unassigned) [Example 891] | > 50 nM
CCOc1ccc(Nc2cc([C@H](CC)CC(=O)O)ccc2N(CC)C2CCOCC2)nc1 (single isomer, unassigned) [Example 522] | < 5 nM
CC[C@H](CC(=O)O)c1ccc(N(CC)C2CCOCC2)c(Nc2ccc(Cl)c(OC)c2)c1 (single isomer, unassigned) [Example 521] | < 50 nM
CCc1cnc(Nc2cc([C@H](CC)CC(=O)O)ccc2N(CC)C2CCOCC2)nc1 (single isomer, unassigned) [Example 500] | > 50 nM
COCC(CC(=O)O)c1ccc(N(CC(C)C)C2CCOCC2)c(NC(=O)Nc2ccc(C)cc2)c1 (single isomer, unassigned) [Example 1216, 3-(4-(Isobutyl(tetrahydro-2H-pyran-4-yl)amino)-3-(3-(p-tolyl)ureido)phenyl)-4-methoxybutanoic acid] | < 50 nM
CC(C)CN(CC(C)C)c1c(F)cc(C(CC(=O)O)c2ccccc2)cc1Nc1ccc(Cl)cc1 (single isomer, unassigned) [Example 129, 3-(3-((4-Chlorophenyl)amino)-4-(diisobutylamino)-5-fluorophenyl)-3-phenylpropanoic acid] | < 50 nM
CC(CC(=O)O)c1ccc(N(CC(C)(C)O)C2CCOCC2)c(Nc2ccc(C#N)cc2)c1 (single isomer, unassigned) [Example 194, 3-(3-((4-cyanophenyl)amino)-4-((2-hydroxy-2-methylpropyl)(tetrahydro-2H-pyran-4-yl)amino)phenyl)butanoic acid] | < 50 nM
CCN(c1ccc([C@@H](COC)CC(=O)O)cc1Nc1ccc(C)cc1)C1CCOCC1 (single isomer, unassigned) [Example 373] | < 5 nM
CCCN(CC1CC1)c1ccc(C(CC)CC(=O)O)cc1Nc1ccc2c(c1)OC(F)(F)O2 (single isomer, unassigned) [Example 659, 3-(4-((cyclopropylmethyl) (propyl)amino)-3-((2,2-difluorobenzo[d][1,3]dioxol-5-yl)amino)phenyl)pentanoic acid] | < 50 nM
CC[C@H](CC(=O)O)c1ccc(N2CCOC[C@@H]2C(C)C)c(Nc2ccc(C#N)cc2)c1 (single isomer, unassigned) [Example 92] | < 5 nM

Compound | IC50
CCC(CC(=O)O)c1ccc(N2CCC[C@H]2C(C)(C)O)c(Nc2cnc(OC)nc2)c1 (single isomer, unassigned) [Example 824] | > 50 nM
CC(C)CN(c1ccc(C(C)CC(=O)O)cc1NC(=O)Nc1cncnc1)C1CCOCC1 (single isomer, unassigned) [Example 961, 3-(4-(isobutyl(tetrahydro-2H-pyran-4-yl)amino)-3-(3-(pyrimidin-5-yl)ureido)phenyl)butanoic acid] | > 50 nM
CCN(c1ccc([C@@H](COC)CC(=O)O)cc1NC(=O)Nc1cnc(C)nc1)C1CCOCC1 (single isomer, unassigned) [Example 427] | > 50 nM
CCC(CC(=O)O)c1ccc(N2CCC[C@H]2C(C)(C)O)c(Nc2ccc(F)cc2)c1 (single isomer, unassigned) [Example 840] | < 50 nM
CCOc1ncc(Nc2cc(C(CC)CC(=O)O)ccc2N2CCC[C@H]2C(C)(C)O)cn1 (single isomer, unassigned) [Example 823] | < 50 nM
CCC(CC(=O)O)c1ccc(N(CC2CC2)C2CCOCC2)c(NC(=O)Nc2ccc(C)cc2)c1 (single isomer, unassigned) [Example 695, 3-(4-((Cyclopropylmethyl)(tetrahydro-2H-pyran-4-yl)amino)-3-(3-(p-tolyl)ureido)phenyl)pentanoic acid] | < 50 nM
COCC(CC(=O)O)c1cc(F)c(N(CC(C)C)CC(C)C)c(NC(=O)Nc2cncnc2)c1 (single isomer, unassigned) [Example 1196, 3-(4-(Diisobutylamino)-3-fluoro-5-(3-(pyrimidin-5-yl)ureido)phenyl)-4-methoxybutanoic acid] | > 50 nM
CCN(c1ccc(C(C)CC(=O)O)cc1NC(=O)Nc1ccccc1F)C1CCOCC1 (single isomer, unassigned) [Example 638, 3-(4-(ethyl(tetrahydro-2H-pyran-4-yl)amino)-3-(3-(2-fluorophenyl)ureido)phenyl) butanoic acid] | < 50 nM
CCN(c1ccc(C(C)(C)CC(=O)O)cc1Nc1cnc(OCC2CC2)nc1)C1CCOCC1 [Example 163, 3-(3-((2-(cyclopropylmethoxy)pyrimidin-5-yl)amino)-4-(ethyl (tetrahydro-2H-pyran-4-yl)amino)phenyl)-3-methylbutanoic acid] | < 5 nM
CC[C@@H](CC(=O)O)c1ccc(N(CC(C)(C)O)C2CCOCC2)c(NC(=O)Nc2ccc(C)cc2)c1 (single isomer, unassigned) [Example 207] | > 50 nM
CCC(CC(=O)O)c1ccc(N(CCC(C)C)C2CCCCC2)c(NC(=O)Cc2ccc(Cl)cc2F)c1 (racemic) [Example 1088] | < 50 nM
CCOc1ccc(Nc2cc(C(CC)CC(=O)O)ccc2N2CCC[C@H]2C(C)(C)O)cc1 (single isomer, unassigned) [Example 833] | > 50 nM
CC[C@@H](CC(=O)O)c1ccc(N(CC)C2CCOCC2)c(Nc2ccc3nc(C)sc3c2)c1 (single isomer, unassigned) [Example 484] | < 5 nM
CCC(CC(=O)O)c1ccc(N(CC(C)C)C2CCCCC2)c(Nc2ccc(Cl)c(OCC(F)(F)F)c2)c1 (single isomer, unassigned) [Example 644, 3-(3-((4-chloro-3-(2,2,2-trifluoroethoxy)phenyl)amino)-4-(cyclohexyl (isobutyl)amino)phenyl) pentanoic acid] | < 50 nM
CC[C@H](CC(=O)O)c1ccc(N(CC)C2CCOCC2)c(Nc2ccc(OCC(F)(F)F)cc2)c1 (single isomer, unassigned) [Example 515] | < 5 nM
CCC(CC(=O)O)c1ccc(N2CCOC[C@H]2C(C)C)c(Nc2ccc(Cl)cc2)c1 (single isomer, unassigned) [Example 900] | < 5 nM
CCc1ccc(Nc2cc(C(C)CC(=O)O)ccc2N2C[C@@H](C)O[C@@H](C)C2)cc1 (single isomer, unassigned) [Example 740] | > 50 nM
COCC(CC(=O)O)c1cc(F)c(N(CC(C)C)CC(C)C)c(NC(=O)Nc2ccc(Cl)cc2F)c1 (single isomer, unassigned) [Example 1182, 3-(3-(3-(4-Chloro-2-fluorophenyl)ureido)-4-(diisobutylamino)-5-fluorophenyl)-4-methoxybutanoic acid] | < 5 nM
CCOc1ncc(Nc2cc(C(C)CC(=O)O)ccc2N(CC(C)(C)O)C2CCCCC2)cn1 (single isomer, unassigned) [Example 50, 3-(4-(cyclohexyl(2-hydroxy-2-methylpropyl)amino)-3-((2-ethoxypyrimidin-5-yl)amino)phenyl)butanoic acid] | > 50 nM
